Test results taken from US20260240842A1, “METHODS TO PREVENT THERAPY RESISTANCE IN MELANOMA VIA BLOCKING GENOMIC INSTABILITY” (THE REGENTS OF THE UNIVERSITY OF CALIFORNIA, priority 2022, published 2026).

Tested on: HSR harboring BRAF in M249 cells
Experiment: Metaphase DNA-FISH tracking emergence of BRAF HSR
Format: cell-based, human
Settings: M249, day 31; DNA-PKi and/or PARPi given in combination with BRAFi+MEKi; FIG. 5G
Source text: FIGS. 5A-5H. Resistance-driver ecDNAs and HSRs dynamically track with resistance and DNA-PKi prevents size-expansion of ecDNAs and CGRs early on MAPKi treatment. FIGS. 5A to 5C, Metaphase DNA-FISH of paired parental and acquired resistant BRAF^V600MUT (5A and 5B) or NRAS^Q61MUT (5C) cell lines without or with drug withdrawal showing ecDNA- or HSR-amplicons harboring BRAF, RAF1 or NRAS. Left, representative images; right, quantifications per cell. Ruler, 15 μm. P values (Unpaired two-tailed Student's t-test): *, p<0.05; **, p<0.01; ***, p<0.001. FIGS. 5D to 5F: Three- (upper) and six-(lower) day MTT assay of indicated cell lines treated with graded concentrations of BRAFi+MEKi (5D and 5E) or MEKi (5F). Cell viability was normalized to respective DMSO/vehicle group. Inner brackets, comparisons between acquired-resistant sub-lines without and with drug withdrawal. Outer brackets, comparisons between acquired-resistant sub-lines and their isogenic parental cell lines. […] FIG. 5G: Representative images (left) and quantification (right) of metaphase DNA-FISH showing HSR harboring BRAF in M249 cells treated with vehicle or BRAFi+MEKi, with or without NU7026 and/or ABT888 for 31 days. […] FIG. 5H: Average total genomic spans of treatment-specific ecDNAs+CGRs in M229 and M245 cell lines (background ecDNA+CGR spans detected in vehicle-treated cells were filtered). […]

SMILES	BRAF HSRs early on treatment
O=c1cc(N2CCOCC2)oc2c1ccc1ccccc12 [NU7026]	suppression
C[C@]1(c2nc3c(C(N)=O)cccc3[nH]2)CCCN1 [ABT888, veliparib]	suppression
